These results are taken from patent US20130079345A1, “[…] ACTIVE DISUBSTITUTED TRIAZINE DERIVATIVES” (BAYER INTELLECTUAL PROPERTY GMBH, priority 2010, published 2013).

For one test, the target named is T1, CDK9/Cyclin T1 (Homo sapiens, UniProt P50750).
T1 construct: purchased Invitrogen
Put plainly: LanthaScreen Eu Kinase Binding Assay, CDK9/Cyclin T1. As to conditions: tracer 236, read-out: Affinity (Kd) CDK9/Cyclin T1. As for the experimental part: (§1) This protocol describes how the LanthaScreen Eu Kinase Binding Assay was performed to determine dissociation constants (Kd) of compounds of general formula (I) and CDK/Cyclin complexes. The principle behind this assay is based upon the binding and displacement of an Alexa Fluor 647-labeled tracer, which binds to the active site of kinases. Binding of the tracer to the kinase is detected using a Eu-labeled antibody. Simultaneous binding of both the tracer and antibody to the kinase gives rise to a FRET-signal. Binding of an inhibitor to the kinase competes for binding with the tracer, resulting in a loss of FRET.
(§2) The compounds of general formula (I) summarized in Table 1 were diluted from a 10 mM DMSO stock solution 1:10 in a total volume of 15 μL DMSO. This compound predilution was then serial diluted 1:3 over 8 steps in DMSO and briefly spun down. Each compound solution was now diluted 1:33.33 in kinase buffer (HEPES: 20 mM, pH: 8.0; MgCl2: 10 mM; DTT: 1 mM; Brij-35: 0.01%), mixed thoroughly and spun down. For every sample, 5 μL of the diluted compound were mixed with 5 μL tracer working solution (e.g. 60 nM tracer 236 in kinase buffer for CDK2/Cyclin A) and 5 μL CDK/Cyclin/Anti-GST-AB-working solution (e.g. 15 nM CDK2/Cyclin A, 1:250 dilution of Anti-GST-AB in kinase buffer) in a well of a small volume 384 well plate (Corning Incorporated, Corning, N.Y., USA; order no. 3673). […] For positive controls, in each well 5 μL of DMSO working solution (3% DMSO diluted in kinase buffer) was mixed with 5 μL CDK/Cyclin/Anti-GST-AB-working solution: (e.g. 15 nM CDK2/Cyclin A, 1:250 dilution of Anti-GST-AB in kinase buffer) and 5 μL Tracer working solution (e.g. 60 nM Tracer 236 in kinase buffer for CDK2/Cyclin A). Positive and negative controls were calculated from at least 8 different sample wells. The 384 well plates were mixed in a Teleshaker plate mixer (Beckman Coulter, Brea, Calif., USA) at 2000 rpm for 40 sec, and incubated for 1 h at room temperature before reading. The FRET signal was measured at 340 nm excitation, 665 nm and 615 nm emission (for the kinase tracer and LanthaScreen Eu-AB, respectively) with an Envision spectrophotometer (Perkin Elmer, Waltham, Mass., USA) with 50 μs delay and 300 μs integration time. Kd values were determined from the sigmoidal dose response curves with the software Quattro Workflow (Quattro GmbH, Munich, Germany).
For orientation: TR-FRET usually uses a lanthanide donor and a delayed reading to cut background.

A further test deals with T2, CDK9/Cyclin K (Homo sapiens, UniProt P50750).
T2 construct: purchased Invitrogen
The test is described as follows: LanthaScreen Eu Kinase Binding Assay, CDK9/Cyclin K. As to conditions: tracer 236, read-out: Affinity (Kd) CDK9/Cyclin K. As for the experimental part:
as §1, §2

The target of a further test is T3, CDK7/CyclinH/Mat1 (Homo sapiens, UniProt P50613).
T3 construct: purchased Carna Biosciences
The test is described as follows: LanthaScreen Eu Kinase Binding Assay, CDK7. The following applies: tracer 236, read-out: Affinity (Kd) CDK7. As to the method:
as §1, §2

For another test, the target named is T4, CDK2/CyclinA (Homo sapiens, UniProt P24941).
T4 construct: purchased Proqinase
The test is described as follows: LanthaScreen Eu Kinase Binding Assay, CDK2. As to conditions: tracer 236, read-out: Affinity (Kd) CDK2. As for the experimental part:
as §1, §2

T2 sequence (P50750 whole entry): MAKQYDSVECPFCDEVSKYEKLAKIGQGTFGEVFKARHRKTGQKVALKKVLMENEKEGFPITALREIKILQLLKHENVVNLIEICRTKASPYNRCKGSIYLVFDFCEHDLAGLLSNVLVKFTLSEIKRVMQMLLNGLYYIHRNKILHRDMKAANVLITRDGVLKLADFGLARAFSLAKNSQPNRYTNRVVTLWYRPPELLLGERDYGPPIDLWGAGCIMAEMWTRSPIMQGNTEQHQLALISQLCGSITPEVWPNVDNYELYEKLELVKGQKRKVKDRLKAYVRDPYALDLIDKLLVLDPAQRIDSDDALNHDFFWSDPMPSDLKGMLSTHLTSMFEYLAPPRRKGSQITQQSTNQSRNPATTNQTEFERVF
T2 sequence (O75909 whole entry partner): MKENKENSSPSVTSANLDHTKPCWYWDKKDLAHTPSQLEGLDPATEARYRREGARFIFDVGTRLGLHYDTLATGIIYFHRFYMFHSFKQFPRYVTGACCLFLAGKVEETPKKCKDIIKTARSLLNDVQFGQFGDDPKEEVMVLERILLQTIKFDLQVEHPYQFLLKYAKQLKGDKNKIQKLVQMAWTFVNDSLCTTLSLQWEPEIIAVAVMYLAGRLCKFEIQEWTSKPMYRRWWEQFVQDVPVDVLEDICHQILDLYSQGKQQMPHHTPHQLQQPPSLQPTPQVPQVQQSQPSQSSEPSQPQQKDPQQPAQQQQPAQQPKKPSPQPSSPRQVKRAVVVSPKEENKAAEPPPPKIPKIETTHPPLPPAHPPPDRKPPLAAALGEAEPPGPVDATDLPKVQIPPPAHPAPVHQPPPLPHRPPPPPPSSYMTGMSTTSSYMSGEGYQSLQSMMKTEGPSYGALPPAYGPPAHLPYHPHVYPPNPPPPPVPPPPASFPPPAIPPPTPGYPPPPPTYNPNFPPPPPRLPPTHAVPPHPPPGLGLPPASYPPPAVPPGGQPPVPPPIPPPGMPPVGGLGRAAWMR
T1 sequence (P50750 whole entry): as the sequence (P50750 whole entry) above
T1 sequence (O60563 whole entry partner): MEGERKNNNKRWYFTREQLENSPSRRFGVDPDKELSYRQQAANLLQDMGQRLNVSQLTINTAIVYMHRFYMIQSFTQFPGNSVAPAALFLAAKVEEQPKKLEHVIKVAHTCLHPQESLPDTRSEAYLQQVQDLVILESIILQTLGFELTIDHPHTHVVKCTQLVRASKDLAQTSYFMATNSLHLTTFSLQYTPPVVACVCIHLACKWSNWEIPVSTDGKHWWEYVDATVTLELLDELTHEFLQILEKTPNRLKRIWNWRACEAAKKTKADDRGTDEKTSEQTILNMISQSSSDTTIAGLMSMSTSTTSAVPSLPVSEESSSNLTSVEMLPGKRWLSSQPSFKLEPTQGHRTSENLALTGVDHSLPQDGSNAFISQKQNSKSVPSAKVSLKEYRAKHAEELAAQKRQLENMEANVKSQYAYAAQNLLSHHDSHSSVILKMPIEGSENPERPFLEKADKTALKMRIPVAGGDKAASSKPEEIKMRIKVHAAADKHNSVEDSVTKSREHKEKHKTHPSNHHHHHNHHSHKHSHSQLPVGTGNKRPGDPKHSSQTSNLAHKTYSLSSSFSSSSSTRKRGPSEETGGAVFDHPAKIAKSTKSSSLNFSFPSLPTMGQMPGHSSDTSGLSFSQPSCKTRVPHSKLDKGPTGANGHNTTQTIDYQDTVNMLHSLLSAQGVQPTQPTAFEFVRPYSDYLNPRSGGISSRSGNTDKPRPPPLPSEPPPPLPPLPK
T3 sequence (P50613 whole entry): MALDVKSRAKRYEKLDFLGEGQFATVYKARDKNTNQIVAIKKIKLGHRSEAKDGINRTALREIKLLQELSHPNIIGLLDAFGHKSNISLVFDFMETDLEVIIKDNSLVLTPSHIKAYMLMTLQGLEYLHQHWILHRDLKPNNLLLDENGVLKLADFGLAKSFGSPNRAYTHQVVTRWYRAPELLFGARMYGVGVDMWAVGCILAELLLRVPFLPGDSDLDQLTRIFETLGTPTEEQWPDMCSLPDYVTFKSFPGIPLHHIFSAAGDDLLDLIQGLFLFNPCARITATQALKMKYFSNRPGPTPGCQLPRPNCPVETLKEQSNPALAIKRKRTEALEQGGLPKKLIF
T3 sequence (P51946 whole entry partner): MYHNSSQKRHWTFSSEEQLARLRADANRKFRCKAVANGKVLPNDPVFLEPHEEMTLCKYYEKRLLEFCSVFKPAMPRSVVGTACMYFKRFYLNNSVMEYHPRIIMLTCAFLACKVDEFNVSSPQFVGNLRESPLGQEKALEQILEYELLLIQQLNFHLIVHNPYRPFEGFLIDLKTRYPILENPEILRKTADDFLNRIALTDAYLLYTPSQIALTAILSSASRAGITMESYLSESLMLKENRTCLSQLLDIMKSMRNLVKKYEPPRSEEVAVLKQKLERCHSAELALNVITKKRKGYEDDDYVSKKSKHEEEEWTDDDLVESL
T3 sequence (P51948 whole entry partner): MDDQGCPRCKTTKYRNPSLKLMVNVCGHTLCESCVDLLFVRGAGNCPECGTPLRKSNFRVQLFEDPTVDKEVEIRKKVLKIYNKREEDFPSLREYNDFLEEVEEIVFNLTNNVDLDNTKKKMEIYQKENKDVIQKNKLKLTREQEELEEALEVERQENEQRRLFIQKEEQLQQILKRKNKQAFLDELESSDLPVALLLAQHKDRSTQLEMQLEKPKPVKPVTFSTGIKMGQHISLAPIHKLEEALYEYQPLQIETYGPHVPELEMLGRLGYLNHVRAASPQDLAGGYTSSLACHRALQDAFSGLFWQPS

In the case of `COc1cc(F)ccc1-c1ncnc(Nc2cccc(CS(=O)(=O)NCCCCNC(=O)OC(C)(C)C)c2)n1` [Compound Q1, tert-Butyl [4-((3-((4-(4-Fluoro-2-methoxyphenyl)-1,3,5-triazin-2-yl)amino)phenyl)methylsulfonamido)butyl]carbamate], the Kd is 12.9 nM on CDK9/Cyclin T1, 5 nM on CDK9/Cyclin K, over 10000 nM at CDK7/CyclinH/Mat1 and 2090 nM at CDK2/CyclinA.
`COCc1ccccc1-c1ncnc(Nc2cccc(CS(N)(=O)=O)c2)n1` [Compound B24, 3-[(4-(2-(Methoxymethyl)phenyl)-1,3,5-triazin-2-yl)amino]benzenemethanesulfonamide]: the Kd is 907 nM at CDK9/Cyclin T1, 1110 nM at CDK9/Cyclin K and over 10000 nM on CDK7/CyclinH/Mat1.
`NS(=O)(=O)Cc1cccc(Nc2ncnc(-c3ccccc3CNC3CC3)n2)c1` [Compound B22, 3-[(4-(2-(Cyclopropylamino-methyl)phenyl)-1,3,5-triazin-2-yl)amino]benzenemethanesulfonamide]: the Kd on CDK9/Cyclin T1 was 425 nM; at CDK9/Cyclin K it was 373 nM.
Turning to `COc1ccccc1-c1ncnc(Nc2ccc3c(c2)N(S(N)(=O)=O)CC3)n1` [Compound F1, 6-[(4-(2-Methoxyphenyl)-1,3,5-triazin-2-yl)amino]-2,3-dihydro-1H-indole-1-sulfonamide], the Kd on CDK9/Cyclin T1 was 131 nM; on CDK9/Cyclin K, 39.7 nM; at CDK7/CyclinH/Mat1, 13400 nM; on CDK2/CyclinA it was 1100 nM.
Take `COc1ccccc1-c1ncnc(Nc2cccc(NC(C)=O)c2)n1` [Compound M1, N-[3-((4-(2-Methoxyphenyl)-1,3,5-triazin-2-yl)amino)phenyl]acetamide]: the Kd on CDK9/Cyclin T1 was 146 nM; at CDK9/Cyclin K, 71.2 nM; at CDK7/CyclinH/Mat1, over 30000 nM; at CDK2/CyclinA, 1450 nM.
As for `COc1c(F)cc(F)cc1-c1ncnc(Nc2cccc(CS(N)(=O)=O)c2)n1` [Compound B5, 3-[(4-(3,5-Difluoro-2-methoxyphenyl)-1,3,5-triazin-2-yl)amino]benzenemethanesulfonamide], the Kd at CDK9/Cyclin T1 was 835 nM; on CDK9/Cyclin K it was 286 nM; at CDK7/CyclinH/Mat1 it was over 10000 nM.
`CC(C)(C)OC(=O)NCCCCOc1ccccc1-c1ncnc(Nc2cccc(CS(N)(=O)=O)c2)n1` [Compound B17, 3-[(4-(2-(4-(tert-Butoxycarbonylamino)butoxy)phenyl)-1,3,5-triazin-2-yl)amino]benzenemethanesulfonamide]: the Kd was 15 nM on CDK9/Cyclin T1, 6.4 nM at CDK9/Cyclin K, 12800 nM on CDK7/CyclinH/Mat1 and 2850 nM at CDK2/CyclinA.
With `COc1cc(C(F)(F)F)ccc1-c1ncnc(Nc2cccc(CS(N)(=O)=O)c2)n1` [Compound B8, 3-[(4-(2-Methoxy-4-trifluoromethyl-phenyl)-1,3,5-triazin-2-yl)amino]benzenemethanesulfonamide], the Kd on CDK9/Cyclin T1 is 1230 nM; on CDK9/Cyclin K, 709 nM; at CDK7/CyclinH/Mat1, over 10000 nM.
In the same order, the values of `CNCc1ccc(OC)c(-c2ncnc(Nc3cccc(CS(N)(=O)=O)c3)n2)c1` [Compound O1, 3-[(4-(2-Methoxy-5-(methylamino-methyl)phenyl)-1,3,5-triazin-2-yl)amino]benzenemethanesulfonamide] are 5410 nM, 5980 nM and over 30000 nM.
In the same order, the values of `NCCCCOc1ccccc1-c1ncnc(Nc2cccc(CS(N)(=O)=O)c2)n1` [Compound I1, 3-[(4-(2-(4-Aminobutoxy)phenyl)-1,3,5-triazin-2-yl)amino]benzenemethanesulfonamide] are 101 nM, 52 nM and over 30000 nM.
Turning to `COc1cc(F)ccc1-c1ncnc(Nc2cccc(CS(=O)(=O)NCCCCN)c2)n1` [Compound R1, N-(4-Aminobutyl)-1-[3-((4-(4-fluoro-2-methoxyphenyl)-1,3,5-triazin-2-yl)amino)phenyl]methanesulfonamide], the Kd at CDK9/Cyclin T1 is 5 nM; on CDK9/Cyclin K, 5 nM; at CDK7/CyclinH/Mat1, over 10000 nM; at CDK2/CyclinA, 2920 nM.
With `CCOC(=O)N=S(C)(=O)c1cccc(Nc2ncnc(-c3ccccc3OC)n2)c1` (racemic) [Compound G1, rac-S-[3-((4-(2-Methoxyphenyl)-1,3,5-triazin-2-yl)amino)phenyl]-N-ethoxycarbonyl-S-methyl-sulfoximide], the Kd was 105 nM at CDK9/Cyclin T1, 87.2 nM at CDK9/Cyclin K, over 10000 nM on CDK7/CyclinH/Mat1 and over 10000 nM at CDK2/CyclinA.
In the case of `COc1ccc(CO)cc1-c1ncnc(Nc2cccc(CS(N)(=O)=O)c2)n1` [Compound B10, 3-[(4-(5-Hydroxymethyl-2-methoxyphenyl)-1,3,5-triazin-2-yl)amino]benzenemethanesulfonamide], the Kd is 309 nM at CDK9/Cyclin T1, 110 nM on CDK9/Cyclin K and over 10000 nM on CDK7/CyclinH/Mat1.
On to `COc1ccc(C(F)(F)F)cc1-c1ncnc(Nc2cccc(CS(N)(=O)=O)c2)n1` [Compound B9, 3-[(4-(2-Methoxy-5-trifluoromethyl-phenyl)-1,3,5-triazin-2-yl)amino]benzenemethanesulfonamide], for which the Kd at CDK9/Cyclin T1 is 398 nM; at CDK9/Cyclin K, 1590 nM; at CDK7/CyclinH/Mat1, over 10000 nM.
